Test results taken from US20230095199A1, “DIMETHYL SULFOXIDE (DMSO) FORMULATIONS FOR TREATING AUTISM” (Abela Pharmaceuticals, Inc., priority 2010, published 2023).
Entries after “also recorded” stand apart in the source; their conditions may differ.

System: patient, diagnosed with an autism spectrum disorder
Assay: Case treatment of a patient with autism spectrum disorder with oral MSM and/or DMSO
Assay type: in vivo
Procedure: A patient, diagnosed with an autism spectrum disorder, was treated with a combination of MSM and DMSO, beginning. […] In some embodiments, combination of MSM and DMSO unexpectedly improve one or more symptoms associated with autism, as compared to administration of MSM or DMSO individually. In several embodiments, in addition to the beneficial therapeutic effects, the combination of MSM and DMSO reduces one or more of the side effects typically associated with DMSO administration (e.g., odor, gastrointestinal distress). In some embodiments, these unexpected effects are the result of the continued (e.g., daily) administration of MSM/DMSO, while in other embodiments, these effects are long-term (e.g., persist beyond the period of continued administration of MSM/DMSO). Moreover, in certain embodiments, combinations of MSM and DMSO result in synergistic therapeutic effects for one or more of the symptoms of autism. In some embodiments, these synergistic effects are the result of the continued (e.g., daily) administration of MSM/DMSO, while in other embodiments, these effects are long-term (e.g., persist beyond the period of continued administration of MSM/DMSO).
The patient's symptoms include stimming, nighttime stimming, hyperactive gag reflex, impaired social interaction, a lack of vocalization and communication, delayed success with toilet training, and constipation. DMSO/MSM treatment was initiated for patient. The patient was treated with 4.7 grams of oral MSM solution daily (4½ teaspoons daily of a 15% solution). […] The patient was also treated with 4.7 grams of MSM and 0.025 grams of DMSO in an oral solution (4½ teaspoons daily of 15% MSM and 0.1% DMSO).
The patient was also treated with two short term bolus treatments with increased amounts of DMSO. In addition to the 4.7 g of MSM and 0.025 g of DMSO in an oral solution, the patient received an additional 4.8 g/day of DMSO for a short duration of 10 days (1 teaspoon, 90% oral solution). […] The patient's chronic constipation was also eliminated during these treatment cycles of higher doses of DMSO.
The patient was further treated with an oral formulation comprising 4.7 g of MSM and […] of DMSO. Improvements in communication, social interaction, and constipation continued at this dosage.

[1] = additional 4.8 g/day DMSO (90% oral solution) for 10 days on top of 4.7 g MSM and 0.025 g DMSO
[2] = after one month of 4.7 g MSM daily

Row | SMILES | ability to vocalize [1] | chronic constipation [1] | different words vocalized during a session (larger dose of DMSO for 10 days in addition to normal treatment) | frequency of nightly stimming (4.7 g MSM daily (15% solution)) | time until improvement of stimming was noted (4.7 g MSM daily (15% solution)) | reduction of daytime stimming (4.7 g oral MSM daily (15% solution)) | incidents of hyperactive gag reflex (4.7 g oral MSM daily (15% solution), within 12 weeks) | reduction of stimming (especially night-time stimming) (4.7 g oral MSM daily (15% solution, 4½ teaspoons), within 12 weeks) | signs known [2] | time engaged in an activity [2] | vocalization [2]
1 | C[S+](C)[O-] [DMSO, Dimethyl sulfoxide] | improved dramatically | eliminated; also recorded: vastly improved | six | – | – | – | – | – | – | – | –
2 | CS(C)(=O)=O [MSM, Methylsulfonylmethane] | – | – | – | reduced from every night to once every two or three weeks | ≤ 12 weeks | about 80% | reduced from multiple times per day to only a few times per month | about 90% | gained an additional sign | 8 to 10 min | became more vocal
